Assay results from ChEMBL document CHEMBL1201862, “PubChem BioAssay data set” (2004).
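The compound was tested at five concentrations on cells cultured in 96-well plates, with a 48-hour exposure period. GI50: concentration for 50% inhibition of growth.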 Active and inactive are the calls of the source. Cut-off read from the data, not from the text of the source: active = GI50 up to about 1.1 µM and inactive = higher.

Key:
Assay in all cases: NCI anticancer screen, dose series, 48 h
SF-295 = system: SF-295
MDA-N = system: MDA-N
MDA-MB-231 = system: MDA-MB-231
HCC 2998 = system: HCC 2998
SN12C = system: SN12C
NCI/ADR-RES = system: NCI/ADR-RES
SK-MEL-28 = system: SK-MEL-28
EKVX = system: EKVX
MDA-MB-435 = system: MDA-MB-435
PC-3 = system: PC-3
SF-539 = system: SF-539
786-0 = system: 786-0
UACC-62 = system: UACC-62
NCI-H460 = system: NCI-H460
BT-549 = system: BT-549
HOP-92 = system: HOP-92

Measured: GI50

Cc1nnc(Nc2ccc(Cl)cc2)o1
inactive: SF-295 > 10 µM | MDA-N > 10 µM | MDA-MB-231 > 10 µM | HCC 2998 > 10 µM | SN12C > 10 µM | NCI/ADR-RES > 10 µM | SK-MEL-28 > 10 µM | EKVX > 10 µM | MDA-MB-435 > 10 µM | PC-3 > 10 µM | SF-539 > 10 µM | 786-0 > 10 µM | UACC-62 > 10 µM | NCI-H460 > 10 µM

Cc1ccc(NC(=S)NNC(=O)c2cc(-c3ccccc3)nc3ccccc23)cc1C
inactive: SF-295 12.9 µM | MDA-N 17.2 µM | MDA-MB-231 20.3 µM | HCC 2998 18.8 µM | SN12C 17.6 µM | NCI/ADR-RES 23 µM | SK-MEL-28 25.8 µM | MDA-MB-435 24 µM | PC-3 18.7 µM | SF-539 21.2 µM | 786-0 16.3 µM | BT-549 18.7 µM | UACC-62 16.9 µM | NCI-H460 19.5 µM | HOP-92 18.6 µM

O=C(NC1C/C(=N/O)c2c(Br)sc(Br)c21)C(F)(F)F (stereo not drawn)
inactive: SF-295 31 µM | MDA-N 32.3 µM | MDA-MB-231 13.1 µM | HCC 2998 22.6 µM | SN12C 21.2 µM | NCI/ADR-RES 19.3 µM | EKVX 27 µM | MDA-MB-435 47.2 µM | PC-3 13.9 µM | SF-539 17.3 µM | 786-0 18.2 µM | BT-549 32.1 µM | UACC-62 16.9 µM | NCI-H460 25.4 µM | HOP-92 3.65 µM

CO[C@H]1C=C[C@@]23c4cc5c(cc4CO[C@]2(O)CN(C)[C@H]3C1)OCO5
inactive: SF-295 > 100 µM | MDA-N > 100 µM | MDA-MB-231 > 100 µM | HCC 2998 > 100 µM | SN12C > 100 µM | NCI/ADR-RES > 100 µM | SK-MEL-28 > 100 µM | EKVX > 100 µM | MDA-MB-435 > 100 µM | PC-3 > 100 µM | SF-539 > 100 µM | 786-0 > 100 µM | BT-549 > 100 µM | UACC-62 > 100 µM | NCI-H460 > 100 µM | HOP-92 > 100 µM

CCCS(=O)(=O)O
inactive: SF-295 > 100 µM | MDA-MB-231 > 100 µM | NCI/ADR-RES > 100 µM | SK-MEL-28 > 100 µM | EKVX > 100 µM | MDA-MB-435 > 100 µM | PC-3 > 100 µM | SF-539 > 100 µM | BT-549 > 100 µM | UACC-62 > 100 µM | NCI-H460 > 100 µM | HOP-92 > 100 µM

O=C(O)c1ccc(NS(=O)(=O)Cc2ccccc2)cc1
inactive: SF-295 > 100 µM | MDA-N > 100 µM | MDA-MB-231 > 100 µM | HCC 2998 > 100 µM | SN12C > 100 µM | NCI/ADR-RES > 100 µM | SK-MEL-28 > 100 µM | EKVX > 100 µM | MDA-MB-435 > 100 µM | PC-3 > 100 µM | SF-539 > 100 µM | 786-0 > 100 µM | BT-549 > 100 µM | UACC-62 > 100 µM | NCI-H460 > 100 µM | HOP-92 > 100 µM

CCCCC1(N=[N+]=[N-])C(=O)c2cccc3c2N(CCC3)C1=O (stereo not drawn)
inactive: SF-295 > 100 µM | MDA-N > 100 µM | MDA-MB-231 > 100 µM | HCC 2998 > 100 µM | SN12C > 100 µM | NCI/ADR-RES 31 µM | SK-MEL-28 > 100 µM | EKVX > 100 µM | MDA-MB-435 > 100 µM | PC-3 > 100 µM | SF-539 > 100 µM | 786-0 > 100 µM | BT-549 > 100 µM | UACC-62 69.2 µM | NCI-H460 > 100 µM | HOP-92 > 100 µM

O=C(O)c1cc(-c2ccc3cc4c(cc3c2)OCO4)nc2ccccc12
inactive: SF-295 23.8 µM | MDA-N 36 µM | MDA-MB-231 31.4 µM | SN12C 20.8 µM | NCI/ADR-RES 40.7 µM | SK-MEL-28 47.5 µM | EKVX 14.4 µM | MDA-MB-435 85.3 µM | PC-3 14.1 µM | SF-539 92.9 µM | 786-0 30.7 µM | BT-549 22.8 µM | UACC-62 23.5 µM | NCI-H460 12.9 µM | HOP-92 20.1 µM

Cc1[nH]c2ncn(/N=C/c3ccccc3O)c(=N)c2c1Cc1ccccc1
inactive: SF-295 58.6 µM | MDA-N 26 µM | MDA-MB-231 24.9 µM | HCC 2998 28.9 µM | SN12C 67 µM | NCI/ADR-RES 40.6 µM | SK-MEL-28 42.3 µM | EKVX 25 µM | MDA-MB-435 18.5 µM | PC-3 17.6 µM | SF-539 30 µM | 786-0 81.8 µM | BT-549 37.2 µM | UACC-62 37.2 µM | NCI-H460 66.7 µM | HOP-92 > 100 µM

CC(SC(=S)N1CCOCC1)C(=O)Nc1nnc(-c2ccc(Cl)cc2)o1 (stereo not drawn)
inactive: MDA-MB-231 51.5 µM | HCC 2998 > 100 µM | SN12C 36.1 µM | NCI/ADR-RES 23.6 µM | SK-MEL-28 > 100 µM | MDA-MB-435 40.2 µM | PC-3 38.5 µM | SF-539 74.5 µM | 786-0 27.9 µM | BT-549 > 100 µM | UACC-62 50.6 µM | NCI-H460 35.2 µM | HOP-92 > 100 µM

O=C1CC(CC(OCc2ccccc2)C(COCc2ccccc2)OCc2ccccc2)CC(=O)N1 (stereo not drawn)
inactive: SF-295 34.9 µM | MDA-N 30.1 µM | MDA-MB-231 50.2 µM | HCC 2998 36.6 µM | SN12C 44.6 µM | NCI/ADR-RES 24.7 µM | SK-MEL-28 63.4 µM | EKVX 19.7 µM | MDA-MB-435 29.6 µM | PC-3 24.7 µM | SF-539 60.3 µM | 786-0 32.4 µM | BT-549 13 µM | NCI-H460 32.4 µM | HOP-92 39.2 µM

CC1C(=O)N(c2ccccc2)NC12CCCc1ccccc12 (stereo not drawn)
inactive: SF-295 > 100 µM | MDA-N > 100 µM | MDA-MB-231 > 100 µM | HCC 2998 > 100 µM | SN12C > 100 µM | NCI/ADR-RES > 100 µM | SK-MEL-28 > 100 µM | EKVX > 100 µM | MDA-MB-435 > 100 µM | PC-3 > 100 µM | SF-539 > 100 µM | BT-549 > 100 µM | UACC-62 > 100 µM | NCI-H460 > 100 µM | HOP-92 > 100 µM

COC1OC(CS(=O)(=O)O)C(O)C(O)C1O (stereo not drawn)
inactive: SF-295 > 100 µM | MDA-N > 100 µM | HCC 2998 > 100 µM | SN12C > 100 µM | NCI/ADR-RES > 100 µM | SK-MEL-28 > 100 µM | MDA-MB-435 > 100 µM | PC-3 > 100 µM | BT-549 > 100 µM | UACC-62 > 100 µM | NCI-H460 > 100 µM | HOP-92 > 100 µM

COc1ccc(C(CC(=O)c2ccc(O)cc2)C(C(=O)c2ccc(O)cc2)C(c2ccc(OC)cc2)C2C(=O)NC(=S)NC2=O)cc1 (stereo not drawn)
inactive: SF-295 20 µM | MDA-N 18.8 µM | MDA-MB-231 20.7 µM | SN12C 24.7 µM | NCI/ADR-RES 17.9 µM | SK-MEL-28 16.2 µM | MDA-MB-435 25.5 µM | PC-3 21.8 µM | 786-0 20.6 µM | BT-549 18.5 µM | UACC-62 17.7 µM | NCI-H460 18.1 µM | HOP-92 46.9 µM
